Test results from article PMC4706877, “Antibacterial and Cytotoxic Activity of Compounds Isolated from Flourensia oolepis” (Evidence-based Complementary and Alternative Medicine : eCAM, 2015).
Values after ≈ are worked out from the molar mass of the structure shown. Counter-ions that a name gives are not always drawn. Like-named read-outs stand apart in the source and are kept apart here.

Columns and labels:
[1] = system: Enterococcus faecalis (ATCC 29212); test: Agar dilution MIC / MBC; format: cell-based; conditions: ATCC29212, E. faecalis; for MIC: agar dilution, 24 h; for MBC: value in parentheses
Method: (§1) This isolate was identified by conventional biochemical assays and by the commercial system API20E (bioMérieux SA, Mercy L'Etoile, France). Antimicrobial resistances were determined by disk diffusion susceptibility testing (Kirby-Bauer Method) according to CLSI [15]. Bacterial suspensions were prepared on sterile saline from each organism grown overnight. Turbidity was spectrophotometrically adjusted to the McFarland 0.5 standard. Dilutions were carried out with sterile saline to give an adjusted concentration of 1.5 × 10^7 colony-forming units/mL.
(§2) Three independent experiments were carried out. […] For reading, visual observations were carried out.

[2] = system: Pseudomonas aeruginosa (ATCC 27853); test: Agar dilution MIC / MBC; format: cell-based; conditions: ATCC27853, P. aeruginosa; for MIC: agar dilution, 24 h; for MBC: value in parentheses
Method: as §1, §2

[3] = system: Staphylococcus aureus subsp. aureus (ATCC 6538); test: Agar dilution MIC / MBC; format: cell-based; conditions: Staphylococcus aureus, ATCC6538, S. aureus; for MIC: agar dilution, 24 h; for MBC: value in parentheses, read-out: MBC
Method: as §1, §2

[4] = system: tetracycline, erythromycin, and polymyxin-resistant Proteus mirabilis (Pr2921); test: Agar dilution MIC / MBC; format: cell-based; conditions: P. mirabilis; for MIC: agar dilution, 24 h; for MBC: value in parentheses
Method: as §1, §2

[5] = system: Escherichia coli (ATCC 25922); test: Agar dilution MIC / MBC; format: cell-based; conditions: ATCC25922, E. coli; for MIC: agar dilution, 24 h; for MBC: value in parentheses
Method: as §1, §2

[6] = system: Lucena 1 cells (MDR, P-glycoprotein overexpressing); test: cells; format: cell-based, human; conditions: for IC50: Homo sapiens, Lucena 1, 72 h, Lucena 1, MTT, 72 h, read-out: IC50 values and 95% confidence limits (lower, upper)
Method: (§3) The HEK293T non-tumor derived cell line and human isolated mononuclear cells (PBMC) were also tested. […] Cells were cultured at 37°C in a 5% CO2 humidified environment.
(§4) The latter concentration was then used for maintenance of the cells. Lucena 1 were continuously cultured in the presence of 60 nM DOX. Both cell lines were grown in drug-free medium 3-4 days before the experiments. Overexpression of P-glycoprotein (P-gp) in both MDR variants was verified by flow cytometry using FITC-labeled mouse anti-human P-gp (BD Pharmingen, USA). Cells were subcultured twice a week from frozen stocks and used before the 20th passage. All experiments were performed with cells in the logarithmic growth phase with cell viabilities over 90%, determined by trypan blue staining.
(§5) To investigate the cytotoxic potential of the isolated compounds, the MTT colorimetric assay was performed. […] The compounds were evaluated at a final maximum concentration of 100 μM. After 72 hours, 20 μL of 5 mg/mL solution of MTT in sterile PBS was added to each well and further incubated for 4 h. Then, the supernatants were removed and replaced with 100 μL DMSO to solubilize the resulting purple formazan crystals produced from metabolically viable cells. Absorbance was measured with an iMark micro-plate reader (Bio-Rad, USA) at 595 nm. Two wells were used for each concentration of the products assayed and three independent experiments were performed. […] The percentage of cytotoxic activity of the assayed compounds was determined by the following formula: cytotoxicity (%) = [1 − (optical density of treated cells − optical density DMSO)/(optical density of ethanol control cells − optical density DMSO)] × 100.
(§6) Data were analyzed by one-way analysis of variance (ANOVA) and means were compared using Bonferroni's comparison test, with p ≤ 0.05 considered as statistically significant.

[7] = system: CEM/ADR5000 cells (MDR, P-glycoprotein overexpressing); test: cells; format: cell-based, human; conditions: for IC50: Homo sapiens, ADR5000, 72 h, CEM/ADR5000, MTT, 72 h, read-out: IC50 values and 95% confidence limits (lower, upper)
Method: as §3, §4, §5, §6

[8] = system: K562 chronic myeloid leukemia cells; test: MTT cell proliferation assay; format: cell-based, human; conditions: Homo sapiens, K562, MTT, 72 h, read-out: IC50 values and 95% confidence limits (lower, upper)
Method: as §3, §5, §6

[9] = system: CCRF-CEM acute lymphoblastic leukemia cells; test: MTT cell proliferation assay; format: cell-based, human
Method: as §3, §5, §6

bacteria = test: Antibacterial test of fractions during bioguided isolation; conditions: at 2 mg/mL
Method: MICs were determined by the agar dilution test according to CLSI [15] with some modifications [7]. Briefly, the plate count agar medium (PCA, Oxoid Ltd, UK) was added in duplicate to the suitable amount of fraction or pure compound previously dissolved in ethanol. […] After solidification of the agar in 6-well plates (Greiner Bio-One, Germany), 2 μL of each bacterial suspension was placed on the agar surface. Three independent experiments were carried out. […] For reading, visual observations were carried out. Nitro blue tetrazolium (NBT, Sigma-Aldrich CO, USA) solution in saline phosphate buffer (PBS) was applied on one spot for confirmation. Plates containing only the culture medium, with or without the addition of the dissolution solvent, were used as controls. Positive controls with commercial gentamicin sulfate or erythromycin dissolved in sterile water or ethanol, respectively, were simultaneously carried out.
The bactericidal effect was further studied from each concentration of product showing growth inhibition. […] At the end of this period, the minimum bactericidal concentration (MBC) values, defined as the lowest concentration with absence of turbidity, were recorded.

[10] = Homo sapiens; CCRF-CEM; MTT, 72 h; read-out: IC50 values and 95% confidence limits (lower, upper)

SMILES | MIC [1] | MBC [1] | MIC [2] | MBC [2] | MIC [3] | MBC [3] | MIC [4] | MBC [4] | MIC [5] | MBC [5] | IC50 [6] | IC50 [7] | IC50 [8] | IC50 [9, 10] | bactericidal activity (bacteria) | resistant index (RI) = IC50 resistant cells/IC50 sensitive cells [6] | resistant index (RI) = IC50 resistant cells/IC50 sensitive cells ([7]; CEM/ADR5000 vs CCRF-CEM) | IC50 ([8]; K562, 72 h) | IC50 ([9]; Homo sapiens, CCRF-CEM, 72 h, CCRF-CEM; MTT, 72 h; read-out: IC50 values and 95% confidence limits (lower, upper))
COc1cc(C2CC(=O)c3ccc(O)cc3O2)ccc1O (stereo not drawn) [Compound 5, 7,4′-dihydroxy-3′-methoxyflavanone] | 500 µg/mL (≈ 1750 µM) | > 500 µg/mL | > 500 µg/mL | > 500 µg/mL | 250 µg/mL (≈ 873 µM) | > 500 µg/mL | > 500 µg/mL | > 500 µg/mL | > 500 µg/mL | > 500 µg/mL | > 100 µM | 30.4 µM | > 100 µM | 24.8 µM | – | – | – | – | –
O=C1C[C@@H](c2ccccc2)Oc2cc(O)cc(O)c21 [Compound 3, pinocembrin] | 62 µg/mL (≈ 242 µM) | 125 µg/mL (≈ 488 µM) | > 500 µg/mL | > 500 µg/mL | 15 µg/mL (≈ 58.5 µM) | 62 µg/mL (≈ 242 µM) | > 500 µg/mL | > 500 µg/mL | 500 µg/mL (≈ 1950 µM) | 500 µg/mL (≈ 1950 µM) | > 100 µM | 53.5 µM | > 100 µM | 58.9 µM | bactericidal effects | – | – | – | –
COc1cccc2c1C(=O)c1c(O)c3c(c(O)c1C2=O)C[C@@](O)(C(=O)CO)C[C@@H]3O[C@H]1C[C@H](N)[C@H](O)[C@H](C)O1 [Doxorubicin, Doxorubicin hydrochloride, reference compound] | – | – | – | – | – | – | – | – | – | – | > 69 µM | > 69 µM | – | – | – | ≥ 16.8 | ≥ 518.8 | 4.1 µM | 0.133 µM
CNC(C)C1CCC(N)C(OC2C(N)CC(N)C(OC3OCC(C)(O)C(NC)C3O)C2O)O1 (stereo not drawn) [Gentamicin, Gentamicin sulfate, reference compound] | 8 µg/mL | 10 µg/mL | 4 µg/mL | 4 µg/mL | 8 µg/mL | 10 µg/mL | 10 µg/mL | 10 µg/mL | 4 µg/mL | 8 µg/mL | – | – | – | – | – | – | – | – | –
CC[C@H]1OC(=O)[C@H](C)[C@@H](O[C@H]2C[C@@](C)(OC)[C@@H](O)[C@H](C)O2)[C@H](C)[C@@H](O[C@@H]2O[C@H](C)C[C@H](N(C)C)[C@H]2O)[C@](C)(O)C[C@@H](C)C(=O)[C@H](C)[C@@H](O)[C@]1(C)O [Erythromycin, erythromycin, reference compound] | 1 µg/mL (≈ 1.36 µM) | 30 µg/mL (≈ 40.9 µM) | 62 µg/mL (≈ 84.5 µM) | 500 µg/mL (≈ 681 µM) | 1 µg/mL (≈ 1.36 µM) | 60 µg/mL (≈ 81.8 µM) | 500 µg/mL (≈ 681 µM) | > 500 µg/mL | 125 µg/mL (≈ 170 µM) | > 500 µg/mL | – | – | – | – | – | – | – | – | –
O=C(/C=C/c1ccc(O)cc1)c1ccc(O)cc1O [Compound 2, isoliquiritigenin] | 500 µg/mL (≈ 1950 µM) | > 500 µg/mL | > 500 µg/mL | > 500 µg/mL | 250 µg/mL (≈ 976 µM) | 500 µg/mL (≈ 1950 µM) | > 500 µg/mL | > 500 µg/mL | > 500 µg/mL | > 500 µg/mL | > 100 µM | 51.9 µM | > 100 µM | 58.1 µM | – | – | – | – | –
